In paper PMC10865806, “Structural insights into the molecular mechanism of high-level ceftazidime–avibactam resistance conferred by CMY-185” (mBio, 2024):

Key:
Assay type in all cases: biochemical, Escherichia coli
CMY-185 [1] = biological target: T1, CMY-185 (Klebsiella pneumoniae, UniProt Q48434, A134E/N366Y/Q140K/V231S); experiment: Competitive inhibition of cephalothin hydrolysis and avibactam inhibition kinetics
T1 construct: all CMY-2 variant genes encoding the mature enzyme without a signal peptide were cloned into the protein expression plasmid vector pET-30b; made in house; host or cells: E. coli BL21 (DE3), pET-30b
Text: (§1) We tested the enzymes, CMY-2, two single mutants V211S (CMY-42) and N346Y, three double mutants A114E_N346Y, Q120K_N346Y, and V211S_N346Y, and the quadruplet mutant CMY-185 to elucidate the impact on the kinetic properties resulting from the four amino acid substitutions present in CMY-185 compared with CMY-2 ([8]). The steady-state kinetic parameters kcat and Km (or Ki app) for nitrocefin, cephalothin, ceftazidime, and cefiderocol and the inhibition parameters Ki app, k2/K, k−2, and koff for avibactam are summarized in Table 1. During the hydrolysis of nitrocefin, we observed the reduction of the initial velocity at concentrations above 50 µM particularly for the CMY-2 variants harboring the N346Y substitution. As this could have represented substrate inhibition, we then determined the kinetics parameters for nitrocefin using the Haldane equation ([16]). […] In addition, during the hydrolysis of cefiderocol by CMY-185, the initial velocities at a concentration range of 3.7–59.4 µM were similar.
(§2) The steady-state kinetics were carried out on a UV-Visible spectrometer (UV-1280, Shimadzu, Japan) in PBS pH 7.2 at 25°C with a constant amount of enzyme and varying concentrations of the substrates. We tested nitrocefin, cephalothin, ceftazidime, and cefiderocol as the substrates and avibactam as the inhibitor. The steady-state kinetics parameters Km and kcat were determined with the Michaelis-Menten equation. For poorly hydrolyzed substrates, the Km value was assumed to be the competitive inhibition constant (Ki app) value according to previous studies ([17], [19]). Inhibition parameter values of Ki app, k2/K, k−2, and koff for avibactam were determined using a method as described previously ([33]). Cephalothin was used as the reporter substrate for competitive inhibition experiments, and its concentration was fixed at 100 µM. The enzyme concentration was 1–10 nM. Inverse steady-state initial velocities were plotted against the concentration of the competitive inhibitor agents, such as ceftazidime, cefiderocol, and avibactam. The data were analyzed by linear regression analysis of the Dixon plot, and Ki app (observed) was determined by dividing the y-intercept value by the slope of the line. It was then corrected to account for the affinity of cephalothin for each enzyme using the Equation (1):
(§3) (1) Ki app=Ki app (observed)/{1+[S]/Km (cephalothin)}
(§4) where [S] represents the concentration of the reporter substrate cephalothin, and Km (cephalothin) is the Km value of cephalothin for each enzyme.
(§5) The koff value was determined using a jump dilution assay. The enzyme and avibactam were mixed and preincubated at 25°C for 5 min. The concentration of avibactam depended on the enzyme and concentrations 10-fold higher from each Ki app (observed) value were adopted, which were determined based on the corrected competitive inhibition constants Ki app. Preincubated enzyme-avibactam mixture was then diluted 2,000-fold in the 100 µM cephalothin solution, and the hydrolysis of cephalothin was measured. Three independent measurements were performed for each enzyme and substrate or inhibitor combination. Curve fittings using linear or non-linear regression were performed with R 4.1.3 (R Core Team, 2022).

CMY-2 [2] = biological target: T2, CMY-2 (Klebsiella pneumoniae, UniProt Q48434); experiment: as above; details: for Ki: reporter substrate cephalothin 100 µM, Dixon plot, read-out: Ki app
T2 construct: all CMY-2 variant genes encoding the mature enzyme without a signal peptide were cloned into the protein expression plasmid vector pET-30b; made in house; host or cells: E. coli BL21 (DE3), pET-30b
Text: as §1, §2, §3, §4, §5

[3] = biological target: T3, CMY-2 variant A114E_N346Y (Klebsiella pneumoniae, UniProt Q48434, A134E/N366Y); experiment: as above; details: for Ki: reporter substrate cephalothin 100 µM, Dixon plot, read-out: Ki app
T3 construct: all CMY-2 variant genes encoding the mature enzyme without a signal peptide were cloned into the protein expression plasmid vector pET-30b; made in house; host or cells: E. coli BL21 (DE3), pET-30b
Text: as §1, §2, §3, §4, §5

CMY-2 variant N346Y [4] = biological target: T4, CMY-2 variant N346Y (Klebsiella pneumoniae, UniProt Q48434, N366Y); experiment: as above; details: for Ki: reporter substrate cephalothin 100 µM, Dixon plot, read-out: Ki app
T4 construct: all CMY-2 variant genes encoding the mature enzyme without a signal peptide were cloned into the protein expression plasmid vector pET-30b; made in house; host or cells: E. coli BL21 (DE3), pET-30b
Text: as §1, §2, §3, §4, §5

[5] = biological target: T5, CMY-2 variant Q120K_N346Y (Klebsiella pneumoniae, UniProt Q48434, N366Y/Q140K); experiment: as above
T5 construct: all CMY-2 variant genes encoding the mature enzyme without a signal peptide were cloned into the protein expression plasmid vector pET-30b; made in house; host or cells: E. coli BL21 (DE3), pET-30b
Text: as §1, §2, §3, §4, §5

[6] = biological target: T6, CMY-2 variant V211S_N346Y (Klebsiella pneumoniae, UniProt Q48434, N366Y/V231S); experiment: as above
T6 construct: all CMY-2 variant genes encoding the mature enzyme without a signal peptide were cloned into the protein expression plasmid vector pET-30b; made in house; host or cells: E. coli BL21 (DE3), pET-30b
Text: as §1, §2, §3, §4, §5

V211S (CMY-42) [7] = biological target: T7, V211S (CMY-42) (Klebsiella pneumoniae, UniProt Q48434, V231S); experiment: as above
T7 construct: all CMY-2 variant genes encoding the mature enzyme without a signal peptide were cloned into the protein expression plasmid vector pET-30b; made in house; host or cells: E. coli BL21 (DE3), pET-30b
Text: as §1, §2, §3, §4, §5

CMY-2 [8] = biological target: T2, CMY-2; experiment: Steady-state hydrolysis kinetics
Text: as §1
as §2, with “The enzyme concentration was 1–10 nM.” left out, “(1): […]” for “(1):”

[9] = biological target: T3, CMY-2 variant A114E_N346Y; experiment: Steady-state hydrolysis kinetics; details: for Km / kcat: PBS pH 7.2, 25°C
Text: as §1
as §2, with “The enzyme concentration was 1–10 nM.” left out, “(1): […]” for “(1):”

CMY-2 variant N346Y [10] = biological target: T4, CMY-2 variant N346Y; experiment: Steady-state hydrolysis kinetics; details: for Km / kcat: PBS pH 7.2, 25°C
Text: as §1
as §2, with “The enzyme concentration was 1–10 nM.” left out, “(1): […]” for “(1):”

CMY-185 [11] = biological target: T1, CMY-185; experiment: Steady-state hydrolysis kinetics; details: for Km / kcat: PBS pH 7.2, 25°C
Text: as §1
as §2, with “(1): […]” for “(1):”

[12] = biological target: T5, CMY-2 variant Q120K_N346Y; experiment: Steady-state hydrolysis kinetics; details: for Km / kcat: PBS pH 7.2, 25°C
Text: as §1
as §2, with “(1): […]” for “(1):”

[13] = biological target: T6, CMY-2 variant V211S_N346Y; experiment: Steady-state hydrolysis kinetics; details: V211S_N346Y; for Km / kcat: PBS pH 7.2, 25°C
Text: as §1
as §2, with “(1): […]” for “(1):”

V211S (CMY-42) [14] = biological target: T7, V211S (CMY-42); experiment: Steady-state hydrolysis kinetics; details: for Km / kcat: PBS pH 7.2, 25°C
Text: as §1
as §2, with “(1): […]” for “(1):”

[15] = test system: CC(=O)OCC1=C(C(=O)O)N2C(=O)[C@@H](NC(=O)Cc3cccs3)[C@H]2SC1; experiment: Steady-state hydrolysis kinetics; details: other: CMY-2, PBS pH 7.2, 25°C
Text: as §1
as §2, with “The enzyme concentration was 1–10 nM.” left out, “(1): […]” for “(1):”

[16] = test system: O=C(Cc1cccs1)N[C@@H]1C(=O)N2C(C(=O)O)=C(/C=C/c3ccc([N+](=O)[O-])cc3[N+](=O)[O-])CS[C@H]12; experiment: Steady-state hydrolysis kinetics; details: other: CMY-2, PBS pH 7.2, 25°C
Text: as §1
as §2, with “The enzyme concentration was 1–10 nM.” left out, “(1): […]” for “(1):”

[17] = reporter substrate cephalothin 100 µM, Dixon plot, read-out: Ki app
[18] = substrate 100 µM, 100–200 nM enzyme
[19] = substrate inhibition, Haldane equation

Compound: NC(=O)[C@@H]1CC[C@@H]2CN1C(=O)N2OS(=O)(=O)O [Avibactam, avibactam]
- k−2 (CMY-185 [1]; CMY-185, decarbamoylation rate constant): 0.0007 ± 5e-05 s⁻¹
- koff (CMY-185 [1]; CMY-185, jump dilution assay): 4.8e-07 s⁻¹
- Ki (CMY-185 [1]; CMY-185, reporter substrate cephalothin 100 µM, Dixon plot, read-out: Ki app): 1300 µM
- fold higher Ki app (CMY-185 [1]; CMY-185 compared to CMY-2 and V211S): 20,000 fold
- k−2 (CMY-2 [2]; decarbamoylation rate constant): 0.00012 ± 2e-05 s⁻¹
- koff (CMY-2 [2]; jump dilution assay): 7.3e-05 s⁻¹
- Ki (CMY-2 [2]): 0.063 µM
- kinact/KI (CMY-2 [2]; second-order carbamoylation rate constant, read-out: k2/K): 28000 M⁻¹ s⁻¹
- k−2 ([3]; decarbamoylation rate constant): 0.00011 ± 0 s⁻¹
- koff ([3]; jump dilution assay): 9e-07 s⁻¹
- Ki [3]: 80 ± 9 µM
- fold higher Ki app (CMY-2 variant N346Y [4]; N346Y compared to CMY-2 and V211S): 1,000 fold
- k−2 (CMY-2 variant N346Y [4]; N346Y, decarbamoylation rate constant): 1e-05 ± 0.00016 s⁻¹
- koff (CMY-2 variant N346Y [4]; N346Y, jump dilution assay): 2.6e-06 s⁻¹
- Ki (CMY-2 variant N346Y [4]; N346Y): 41 ± 6 µM
- fold higher Ki app ([5]; Q120K_N346Y compared to CMY-2 and V211S): 10,000 fold
- fold higher Ki app ([5]; Q120K_N346Y compared to N346Y): 10 fold
- k−2 ([5]; Q120K_N346Y, decarbamoylation rate constant): 0.002 ± 0.0001 s⁻¹
- koff ([5]; Q120K_N346Y, jump dilution assay): 4e-06 s⁻¹
- Ki ([5]; Q120K_N346Y, reporter substrate cephalothin 100 µM, Dixon plot, read-out: Ki app): 590 µM
- k−2 ([6]; decarbamoylation rate constant): 0.00044 ± 0.00021 s⁻¹
- koff ([6]; jump dilution assay): 2.4e-06 s⁻¹
- Ki [6, 17]: 14 ± 4 µM
- k−2 (V211S (CMY-42) [7]; decarbamoylation rate constant): 0.00015 ± 2e-05 s⁻¹
- koff (V211S (CMY-42) [7]; jump dilution assay): 6e-05 s⁻¹
- Ki (V211S (CMY-42) [7]; [17]): 0.034 µM

Compound: CC(C)(O/N=C(\C(=O)N[C@@H]1C(=O)N2C(C(=O)[O-])=C(C[n+]3ccccc3)CS[C@H]12)c1csc(N)n1)C(=O)O [Ceftazidime, ceftazidime]
- hydrolysis (CMY-2 [8]; [18]): no apparent hydrolysis
- hydrolysis [9, 18]: no apparent hydrolysis
- hydrolysis (CMY-2 variant N346Y [10]; [18]): no apparent hydrolysis
- Km (CMY-185 [11]): 2.2 ± 0.3 µM
- kcat (CMY-185 [11]): 0.1 ± 0.0 s⁻¹
- Km [12]: 5.3 ± 0.5 µM
- kcat [12]: 0.077 ± 0.003 s⁻¹
- Km [13]: 37 ± 2 µM
- kcat [13]: 0.3 ± 0.0 s⁻¹
- Km (V211S (CMY-42) [14]): 74 ± 10 µM
- kcat (V211S (CMY-42) [14]): 1.5 ± 0.2 s⁻¹
- Ki (CMY-2 [2]): 0.7 ± 0.1 µM
- Ki [3]: 0.3 µM
- Ki (CMY-2 variant N346Y [4]; N346Y): 0.7 ± 0.2 µM

Compound: CC(=O)OCC1=C(C(=O)O)N2C(=O)[C@@H](NC(=O)Cc3cccs3)[C@H]2SC1 [Cephalothin, cephalothin]
- Km [9]: 1.4 ± 0.1 µM
- kcat [9]: 3.3 ± 0.1 s⁻¹
- Km (CMY-2 variant N346Y [10]): 3.9 ± 0.1 µM
- kcat (CMY-2 variant N346Y [10]): 18 ± 7 s⁻¹
- Km (CMY-185 [11]): 19 ± 1 µM
- kcat (CMY-185 [11]): 14 ± 1 s⁻¹
- Km [12]: 18 ± 3 µM
- kcat [12]: 42 ± 5 s⁻¹
- Km [13]: 4.4 ± 0.3 µM
- kcat [13]: 9.6 ± 0.2 s⁻¹
- Km (V211S (CMY-42) [14]): 7.5 ± 1.1 µM
- kcat (V211S (CMY-42) [14]): 83 ± 7 s⁻¹

Compound: O=C(Cc1cccs1)N[C@@H]1C(=O)N2C(C(=O)O)=C(/C=C/c3ccc([N+](=O)[O-])cc3[N+](=O)[O-])CS[C@H]12 [Nitrocefin, nitrocefin]
- Ki (CMY-2 [8]; [19]): 160 µM
- Km [9]: 16 ± 4 µM
- kcat [9]: 57 ± 10 s⁻¹
- Ki [9, 19]: 68 ± 37 µM
- Km (CMY-2 variant N346Y [10]): 25 ± 3 µM
- kcat (CMY-2 variant N346Y [10]): 61 ± 5 s⁻¹
- Ki (CMY-2 variant N346Y [10]; [19]): 87 ± 25 µM
- Km (CMY-185 [11]): 39 ± 24 µM
- kcat (CMY-185 [11]): 17 ± 9 s⁻¹
- Ki (CMY-185 [11]; [19]): 18 ± 13 µM
- Km [12]: 50 ± 40 µM
- kcat [12]: 120 ± 90 s⁻¹
- Ki [12, 19]: 14 ± 12 µM
- Km [13]: 35 ± 10 µM
- kcat [13]: 85 ± 18 s⁻¹
- Ki [13, 19]: 100 µM
- Km (V211S (CMY-42) [14]): 29 ± 12 µM
- kcat (V211S (CMY-42) [14]): 320 ± 102 s⁻¹
- Ki (V211S (CMY-42) [14]; [19]): 130 µM

Compound: CMY-2 (Klebsiella pneumoniae)
- Km [15]: 4.1 ± 0.3 µM
- kcat [15]: 54 ± 0.8 s⁻¹
- kcat/Km [15]: 1.3e+07 ± 1e+06 M⁻¹ s⁻¹
- Km [16]: 17 ± 5 µM
- kcat [16]: 240 ± 50 s⁻¹
- kcat/Km [16]: 1.4e+07 ± 5e+06 M⁻¹ s⁻¹
